# Counter-ions that a name gives are not always drawn.
# How the values were obtained:
# Type in all cases: cell-based
# [1] = test system: NCI-H358 cells; experiment: Soft agar colony formation assay, colonies stained with MTT; settings: Homo sapiens; NCI-H358, growth in soft agar, MTT absorbance at 570 nm, 3 independent experiments
# Method: (§1) Metabolic activity was quantified using Cell Proliferation Kit I (Roche, Basel, Switzerland). Cells were seeded in 96-well cell culture plates, using 5000 cells per well for NCI-H358 cells. After treatment, 10 μl of MTT solution was added and incubated for 2 h in CO2 incubator. Then 100 μl of solubilization buffer was added to each well and incubated overnight in CO2 incubator. Cell viability, assessed by the amount of metabolized MTT, was quantified by measuring absorbance at 570 nm. MTT assay for the growth of different tumor cell lines with RAS mutations in soft agar Alexandrine dihydrochloride. NCI-H358, H358, H2122, ASPC-1, HCT-116, T24 and HT1080 cells were used for the soft agar colony formation assay. After the treatment with Alexandrine dihydrochloride, the colonies were stained with MTT and the value was quantified by measuring absorbance at 570 nm after solubilization. The results represent mean±SSEM from 3 independent experiments.
# [2] = test system: ASPC1 cells; experiment: as above; settings: Homo sapiens; ASPC1, growth in soft agar, MTT absorbance at 570 nm, 3 independent experiments
# Method: as §1
# [3] = test system: NCI-H2122 cells; experiment: as above; settings: Homo sapiens; NCI-H2122, growth in soft agar, MTT absorbance at 570 nm, 3 independent experiments
# Method: as §1
# [4] = test system: HCT-116 cells; experiment: as above; settings: Homo sapiens; HCT-116, growth in soft agar, MTT absorbance at 570 nm, 3 independent experiments
# Method: as §1
# [5] = test system: T24 cells; experiment: as above; settings: Homo sapiens, T-24; T24, growth in soft agar, MTT absorbance at 570 nm, 3 independent experiments
# Method: as §1
# [6] = test system: HT1080 cells; experiment: as above; settings: Homo sapiens, HT-1080; HT1080, growth in soft agar, MTT absorbance at 570 nm, 3 independent experiments
# Method: as §1
# [7] = test system: SNF96.2 cells; experiment: RASOpathie-Model, MTT assay for cell viability in 96 well cell culture plate; settings: SNF96.2, 48 h treatment
# Method: FIG. 5: RASOpathie-Model of Alexandrine dihydrochloride; MTT assay for cell viability in 96 well cell culture plate Cells were treated with Alexandrine dihydrochloride for 48 h and cell viability was evaluated by MTT assay. DMSO-treated cells were set as 1. The results shown are mean±SEM from 3 independent experiments.
# [8] = test system: KRAS mutants (G12V, G12C, G12D, G12C/Y96D); experiment: NanoBiT assay for the RAS GTP-loading in HeLa cells (LgBit-KRAS mutants / SmBit-CRAF-RBD); settings: 2 h in serum-free DMEM, normalized to DMSO
# Method: FIG. 3: NanoBit assay for RAS activation (G12V, G12C, G12D, G12C/Y96D,)
# NanoBiT assay for the RAS GTP-loading was performed in HeLa cells transfected with LgBit-KRAS mutants and SmBit-CRAF-RBD. Cells were treated with Alexandrine dihydrochloride for 2 h in serum-free DMEM. After incubation, the substrate for NanoLuc was added, and the luminescence was measured in a multiplate reader. Data were normalized to cells transfected with the indicated mutant and exposed to DMSO for 2 h. DMSO-treated cells were set as 1. The bars represent mean±SEM from 3 independent experiments.
# [9] = test system: BaF3 KRAS G12C cells; experiment: MTT assay for cell viability in 96 well cell culture plate; settings: Mus musculus, 48 h treatment
# Method: (§2) FIGS. 4a) and 4b): MTT assay for cell viability in 96 well cell culture plate Cells were treated with Alexandrine dihydrochloride for 48 h and cell viability was evaluated by MTT assay. DMSO-treated cells were set as 1. The results shown are mean±SEM from 3 independent experiments.
# [10] = test system: BaF3 KRAS G12C/Y96D cells; experiment: as above; settings: Mus musculus, 48 h treatment
# Method: as §2
# [11] = target: KRAS G12V (Homo sapiens, UniProt P01116, G12V); experiment: NanoBit assay for RAS activation (LgBiT-RAS / SmBiT-CRAF RBD); settings: KRAS G12V with CRAF RBD, 2 h with inhibitor in serum free DMEM
# Chain of KRAS G12V (P01116 1-186 G12V): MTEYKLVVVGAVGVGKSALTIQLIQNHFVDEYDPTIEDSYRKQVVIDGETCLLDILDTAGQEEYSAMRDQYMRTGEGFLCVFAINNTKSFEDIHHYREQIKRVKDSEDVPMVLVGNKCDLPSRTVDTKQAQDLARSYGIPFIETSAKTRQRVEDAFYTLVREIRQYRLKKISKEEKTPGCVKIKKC
# Method: (§3) FIGS. 1a) and 1b): NanoBit assay for RAS activation (KRAS G12V, NRAS G12V, HRAS G12V) N-terminal LgBiT and C-terminal SmBiT construct was purchased from Promega and K, N and HRAS G12V (full length) was cloned with Xho I and Bgl II to LgBit and CRAF Ras binding domain (1-149) was cloned with EcoRI and Bgl II to SmBit. For transfections, 1 μg or 2 μg of (12 well/6 well) plasmids were transfected into cells with 0.5 mM of PEI reagent in 100 μl or 200 μl PBS. One day after transfection, cells were harvested and seeded into 96 well white plates, half area (Greiner). After an additional day the medium was changed to serum free DMEM and the cells were incubated for 2 h with inhibitor. NanoGlo assay was performed according to the manufacturer's instructions. The luminescence was measured using Tecan infinite (Tecan).
# [12] = target: NRAS G12V (Homo sapiens, UniProt P01111, G12V); experiment: as above; settings: NRAS G12V with CRAF RBD, 2 h with inhibitor in serum free DMEM
# Chain of NRAS G12V (P01111 1-186 G12V): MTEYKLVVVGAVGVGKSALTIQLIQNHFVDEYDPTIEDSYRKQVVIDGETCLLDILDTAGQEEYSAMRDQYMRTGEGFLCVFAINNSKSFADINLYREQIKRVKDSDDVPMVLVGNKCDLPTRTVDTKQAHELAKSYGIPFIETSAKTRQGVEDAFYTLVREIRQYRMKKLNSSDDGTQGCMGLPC
# Method: as §3
# [13] = target: HRAS G12V (Homo sapiens, UniProt P01112, G12V); experiment: as above; settings: HRAS G12V with CRAF RBD, 2 h with inhibitor in serum free DMEM
# Chain of HRAS G12V (P01112 1-186 G12V): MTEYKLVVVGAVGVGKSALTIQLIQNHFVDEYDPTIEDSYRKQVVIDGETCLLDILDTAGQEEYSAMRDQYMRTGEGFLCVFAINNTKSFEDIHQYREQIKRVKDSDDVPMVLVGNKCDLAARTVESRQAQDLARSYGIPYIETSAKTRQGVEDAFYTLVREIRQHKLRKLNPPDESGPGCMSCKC
# Method: as §3
smiles,measurement,setting,value
"CCCCC(CC)CNC(=N)NC(=N)NCCCCCCNC(=N)NC(=N)NCC(CC)CCCC (stereo not shown) [Alexandrine dihydrochloride, 1,1′-Hexamethylenebis[5-(2-ethylhex-1-yl)]biguanide dihydrochloride]",IC50,[1],1280 nM
same,IC50,[2],1760 nM
same,IC50,[3],1610 nM
same,IC50,[4],1910 nM
same,IC50,[5],1700 nM
same,IC50,[6],310 nM
same,IC50,[7],350 nM
same,inhibition of RAS activation of KRAS mutants (NanoBiT luminescence),[8],inhibits different RAS-isoforms
same,IC50,[9],1170 nM
same,IC50,[10],1540 nM
same,inhibition of K-RAS activation (NanoBit luminescence),[11],inhibits
same,inhibition of N-RAS activation (NanoBit luminescence),[12],inhibits
same,inhibition of H-RAS activation (NanoBit luminescence),[13],inhibits

# From patent US20260283986A1, “NOVEL RAS INHIBITORS” (KHR Biotec GmbH, priority 2022, published 2026)
